# Measurements taken from patent publication US20090305993A1, “METHODS AND COMPOSITION FOR THE TREATMENT OF GASTROINTESTINAL DISORDERS” (IRONWOOD PHARMACEUTICALS, INC., priority 2006, published 2009).
# Where a SMILES comes first, the peptide text is derived from it. Bridges are numbered along the chain shown (N, C = ends).
# Experiments:
# [1] = tested on: Female CD rats; assay: ligated loop model in rats (cGMP, secretion); assay type: in vivo; conditions: center loop of the rat small intestine, 5 μg, FIG. 17b
# Text: In the case of the rat, however four loops of intestine were surgically ligated. The first three loops were distributed equally in the small intestine and the fourth loop was located in colon. […] SEQ ID NO:3 increases cGMP levels and secretion in the center loop of the rat small intestine as shown in FIG. 17b (n=9-10 animal per group for secretion assays; n=7-8 animals for cGMP assays).
# [2] = target: T1, intestinal GC-C receptor (Homo sapiens, UniProt P25092); assay: intestinal GC-C receptor activity assay (cyclic GMP EIA) in T84 cells; assay type: cell-based; conditions: chemically synthesized peptides, FIGS. 2a and 2b
# T1 construct: monolayers of T84 cells in 24-well plates; host or cells: T84 human colon carcinoma cells
# T1 sequence (P25092 24-1073): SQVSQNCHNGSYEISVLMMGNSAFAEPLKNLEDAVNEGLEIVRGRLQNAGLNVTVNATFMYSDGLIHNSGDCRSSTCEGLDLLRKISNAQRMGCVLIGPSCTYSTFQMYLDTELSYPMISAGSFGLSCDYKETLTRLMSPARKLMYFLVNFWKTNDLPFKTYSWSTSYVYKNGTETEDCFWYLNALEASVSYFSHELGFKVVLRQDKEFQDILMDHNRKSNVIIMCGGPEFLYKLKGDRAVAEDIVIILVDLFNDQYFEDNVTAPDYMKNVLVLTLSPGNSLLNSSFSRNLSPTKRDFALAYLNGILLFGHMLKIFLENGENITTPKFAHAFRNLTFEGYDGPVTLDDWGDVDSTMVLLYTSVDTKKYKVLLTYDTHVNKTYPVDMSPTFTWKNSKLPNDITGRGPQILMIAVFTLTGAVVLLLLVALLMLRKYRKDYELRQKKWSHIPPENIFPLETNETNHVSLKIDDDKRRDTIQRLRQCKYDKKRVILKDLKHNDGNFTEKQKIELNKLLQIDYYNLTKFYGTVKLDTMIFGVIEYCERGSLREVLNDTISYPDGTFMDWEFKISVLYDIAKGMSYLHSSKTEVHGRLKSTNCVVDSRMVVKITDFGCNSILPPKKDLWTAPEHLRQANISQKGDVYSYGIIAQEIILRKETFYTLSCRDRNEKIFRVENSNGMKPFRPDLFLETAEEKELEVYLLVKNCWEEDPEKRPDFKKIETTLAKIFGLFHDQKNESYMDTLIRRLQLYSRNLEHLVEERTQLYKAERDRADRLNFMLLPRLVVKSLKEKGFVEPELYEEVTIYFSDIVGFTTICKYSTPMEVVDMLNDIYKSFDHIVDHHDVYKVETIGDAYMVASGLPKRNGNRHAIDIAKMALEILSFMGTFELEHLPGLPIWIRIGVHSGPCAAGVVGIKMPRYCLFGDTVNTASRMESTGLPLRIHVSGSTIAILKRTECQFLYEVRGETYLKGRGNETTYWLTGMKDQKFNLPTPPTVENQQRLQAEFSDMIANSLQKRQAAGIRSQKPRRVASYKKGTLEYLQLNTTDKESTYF
# Procedure: The ability of SEQ ID NO:5, SEQ ID NO:4, SEQ ID NO:3, and SEQ ID NO:6 to activate the intestinal GC-C receptor was assessed in an assay employing the T84 human colon carcinoma cell line (American Type Culture Collection (Bethesda, Md.)). For the assays cells were grown to confluency in 24-well culture plates with a 1:1 mixture of Ham's F12 medium and Dulbecco's modified Eagle's medium (DMEM), supplemented with 5% fetal calf serum and were used at between passages 54 and 60.
# Briefly, monolayers of T84 cells in 24-well plates were washed twice with 1 ml/well DMEM, then incubated at 37° C. for 10 min with 0.45 ml DMEM containing 1 mM isobutylmethylxanthine (IBMX), a cyclic nucleotide phosphodiesterase inhibitor. Test peptides (50 μl) were then added and incubated for 30 minutes at 37° C. The media was aspirated and the reaction was then terminated by the addition of ice cold 0.5 ml of 0.1N HCl. The samples were held on ice for 20 minutes and then evaporated to dryness using a heat gun or vacuum centrifugation.
# [3] = tested on: adult male Wistar rats; assay: water avoidance stress-induced visceral hyperalgesia model; assay type: in vivo, rat; conditions: oral 3 μg/kg, FIG. 7f
# Procedure: The effect of SEQ ID NO:3 on basal visceral nociception in a model of water avoidance stress-induced visceral hyperalgesia in adult male Wistar rats was tested. The stress involved confining rats to a platform surrounded by water for a period of 1 hour and then measuring their visceromotor response to colonic distension using electromyography (EMG).
# Electrode leads were then tunneled subcutaneously and externalized laterally for future access. Following surgery, rats were housed in pairs and allowed to recover for at least 7 days. On the day of the experiment, animals were lightly anesthetized with halothane, and a lubricated latex balloon (6 cm) was inserted intra-anally into the descending colon. Animals were allowed to recover for 30 minutes, and colorectal distension (CRD) was initiated. The CRD procedure consisted of graded intensities of phasic CRD (10, 20, 40, 60 mmHg; 20 s duration; 4 min inter-stimulus interval). Visceromotor response (VMR) to CRD was quantified by measuring EMG activity. […] Animals were allowed 1 hour recovery and then SEQ ID NO:3 or vehicle was orally administered. At 1 hour following administration of SEQ ID NO:3 or vehicle CRD was repeated. […]
# To determine the effect of SEQ ID NO:3 in a model of water avoidance stress-induced visceral hyperalgesia, a baseline CRD was recorded and then the animals were subjected to 1 hour of water avoidance stress. […]
# [4] = tested on: wild-type or GC-C KO mice; conditions: 5 μg into loop, FIG. 17a
# Procedure: The effect of SEQ ID NO:3 on cGMP levels and secretion were studied by injecting SEQ ID NO:3 directly into an isolated loop in either wild-type or GC-C KO mice. This was done by surgically ligating a loop in the small intestine of the mouse. […] The loop was roughly centered and was a length of 1-3 cm. The loops were injected with 100 μl of either SEQ ID NO:3 (5 μg) or vehicle (20 mM Tris, pH 7.5 or Krebs Ringer, 10 mM Glucose, HEPES buffer (KRGH)). Following a recovery time of 90 minutes the loops were excised. Weights were recorded for each loop before and after removal of the fluid contained therein. The length of each loop was also recorded. A weight to length ratio (W/L) for each loop was calculated to determine the effects of SEQ ID NO:3 on secretion.
# To determine the effect of SEQ ID NO:3 on cGMP activity, fluid from the loop was collected in ice-cold trichloracetic acid (TCA) and stored at −80° C. for use in an assay to measure cGMP levels in the fluid. Intestinal fluid samples were TCA extracted, and cyclic GMP was measured by EIA according to procedures outlined in the Cayman Chemical Cyclic GMP EIA kit (Cayman Chemical, Ann Arbor, Mich.) to determine cyclic GMP levels in the intestinal fluid of the mouse in the presence of either SEQ ID NO:3 or vehicle.
compound,measurement,setting,value
"C[C@@H]1NC(=O)[C@@H]2CCCN2C(=O)[C@H](CC(N)=O)NC(=O)[C@@H]2CSSC[C@H](N)C(=O)N[C@H]3CSSC[C@H](NC1=O)C(=O)N[C@@H]([C@@H](C)O)C(=O)NCC(=O)N[C@H](C(=O)N[C@@H](Cc1ccc(O)cc1)C(=O)O)CSSC[C@H](NC(=O)[C@H](Cc1ccc(O)cc1)NC(=O)[C@H](CCC(=O)O)NC3=O)C(=O)N2 [SEQ ID NO:3] (H-CCEYCCNPACTGCY-OH; disulfide 1-6, 2-10, 5-13; N-terminus and C-terminus assumed)",cGMP levels in ligated loop,[1],increases
same,secretion in ligated loop,[1],increases
same,activity in GC-C receptor activity assay,[2],activity comparable to SEQ ID NO:4
same,visceromotor response to CRD 24 hours after water avoidance stress,[3],exhibited anti-hyperalgesic properties
same,cGMP activity in ligated loop fluid,[4],no effect
same,secretion (loop weight to length ratio),[4],no effect
